# Laboratory results as given in ChEMBL document CHEMBL1126756, “Studies on neurokinin antagonists. 3. Design and structure-activity relationships of new branched tripeptides N alpha-(substituted L-aspartyl, L-ornithyl, or L-lysyl)-N-methyl-N-(phenylmethyl)-L-phenylalaninamides as substance P antagonists” (J Med Chem, 1993).
# The source made the active and inactive calls. The rule behind the calls is not given here.
# Target: Substance-P receptor (Cavia porcellus) (UniProt P30547)
# Assay: Tested for percent inhibition against [3H]-SP (substance P) binding against NK1 receptor
# Conditions: concentration not given here
# Substance-P receptor (Cavia porcellus), sequence (P30547 whole entry): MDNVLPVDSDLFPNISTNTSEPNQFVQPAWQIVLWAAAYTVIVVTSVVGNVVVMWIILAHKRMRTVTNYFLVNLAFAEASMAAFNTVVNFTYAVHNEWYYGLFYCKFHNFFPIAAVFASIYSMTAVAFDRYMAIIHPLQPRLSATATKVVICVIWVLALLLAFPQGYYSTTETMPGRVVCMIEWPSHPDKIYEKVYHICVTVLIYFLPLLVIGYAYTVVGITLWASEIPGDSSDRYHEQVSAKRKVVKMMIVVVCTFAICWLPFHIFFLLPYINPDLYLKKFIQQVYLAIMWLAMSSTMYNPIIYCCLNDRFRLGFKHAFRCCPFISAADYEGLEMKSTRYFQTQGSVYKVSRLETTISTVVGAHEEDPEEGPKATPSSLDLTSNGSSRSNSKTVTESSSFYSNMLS
row,SMILES,inhibition [%]
1,CC(=O)N[C@H](C(=O)NCCCC[C@H](NC(=O)c1c[nH]c2ccccc12)C(=O)N[C@H](Cc1ccccc1)C(=O)N(C)Cc1ccccc1)[C@@H](C)O,100

# Target: Substance-P receptor (Cavia porcellus) (UniProt P30547)
# Assay: Tested for percent inhibition against [3H]-SP (substance P) binding against NK1 receptor relative to compound 5 at 100 ng/mL; No inhibition
# Conditions: not given
row,SMILES,inhibition
1,CC(O)C(NC(=O)CC(NC(=O)OC(C)(C)C)C(=O)N[C@H](Cc1ccccc1)C(=O)N(C)Cc1ccccc1)C(N)=O (stereo partly drawn),inactive
2,CC(O)C(NC(=O)CC(N)C(=O)N[C@H](Cc1ccccc1)C(=O)N(C)Cc1ccccc1)C(N)=O (stereo partly drawn),inactive

# Target: Substance-P receptor (Cavia porcellus, UniProt P30547)
# Assay: Tested for inhibition against [3H]-SP (substance P) (1 nM) binding to NK1 receptor in guinea pig lung membranes
# Type: cell membranes, Membrane
# Conditions: not given
# Substance-P receptor, sequence (P30547 whole entry): as above
row,SMILES,IC50 [nM]
1,CC(=O)NC(C(=O)NCCCC(NC(=O)c1c[nH]c2ccccc12)C(=O)N[C@H](Cc1ccccc1)C(=O)N(C)Cc1ccccc1)[C@@H](C)O (stereo partly drawn),21
2,CC(=O)N[C@H](C(=O)NCCCC[C@H](NC(=O)c1c[nH]c2ccccc12)C(=O)N[C@H](Cc1ccccc1)C(=O)N(C)Cc1ccccc1)[C@@H](C)O,13
3,C[C@@H](O)C(NC(=O)CC(NC(=O)c1c[nH]c2ccccc12)C(=O)N[C@H](Cc1ccccc1)C(=O)N(C)Cc1ccccc1)C(N)=O (stereo partly drawn),23
4,CC(=O)NC(C(=O)NCCCCC(NC(=O)c1cc2ccccc2[nH]1)C(=O)N[C@H](Cc1ccccc1)C(=O)N(C)Cc1ccccc1)[C@@H](C)O (stereo partly drawn),19
5,C[C@@H](O)C(NC(=O)CC(NC(=O)c1cc2ccccc2[nH]1)C(=O)N[C@H](Cc1ccccc1)C(=O)N(C)Cc1ccccc1)C(N)=O (stereo partly drawn),54

# Target: Substance-P receptor (Cavia porcellus) (UniProt P30547)
# Assay: Percent inhibition of [3H]-SP (substance P) binding to NK1 receptor relative to compound 7 (100)
# Parameters: concentration or dose not given beside the values
# Conditions: concentration not given here
row,SMILES,inhibition [%]
1,CC(=O)NCCCCC(NC(=O)c1c[nH]c2ccccc12)C(=O)N[C@H](Cc1ccccc1)C(=O)N(C)Cc1ccccc1 (stereo partly drawn),87
2,CN(Cc1ccccc1)C(=O)[C@@H](Cc1ccccc1)NC(=O)C(CCCCNC(=O)N1CCOCC1)NC(=O)c1c[nH]c2ccccc12 (stereo partly drawn),53
3,CC(O)C(NC(=O)OC(C)(C)C)C(=O)NCCCCC(NC(=O)c1c[nH]c2ccccc12)C(=O)N[C@H](Cc1ccccc1)C(=O)N(C)Cc1ccccc1 (stereo partly drawn),98
4,CN(C)C(=O)NCCCCC(NC(=O)c1c[nH]c2ccccc12)C(=O)N[C@H](Cc1ccccc1)C(=O)N(C)Cc1ccccc1 (stereo partly drawn),144
5,CC(=O)NCC(=O)NCCCCC(NC(=O)c1c[nH]c2ccccc12)C(=O)N[C@H](Cc1ccccc1)C(=O)N(C)Cc1ccccc1 (stereo partly drawn),98
6,CC(=O)NCCC(=O)NCCCCC(NC(=O)c1c[nH]c2ccccc12)C(=O)N[C@H](Cc1ccccc1)C(=O)N(C)Cc1ccccc1 (stereo partly drawn),82
7,CN(Cc1ccccc1)C(=O)[C@@H](Cc1ccccc1)NC(=O)C(CCCCN)NC(=O)c1c[nH]c2ccccc12 (stereo partly drawn),91
8,CC(=O)NC(CO)C(=O)NCCCCC(NC(=O)c1c[nH]c2ccccc12)C(=O)N[C@H](Cc1ccccc1)C(=O)N(C)Cc1ccccc1 (stereo partly drawn),136
9,CN(Cc1ccccc1)C(=O)[C@@H](Cc1ccccc1)NC(=O)C(CCCCNC(=O)OCc1ccccc1)NC(=O)c1cc2ccccc2[nH]1 (stereo partly drawn),22
10,CN(Cc1ccccc1)C(=O)[C@@H](Cc1ccccc1)NC(=O)C(CCCCNC(=O)C(C)(C)C)NC(=O)c1c[nH]c2ccccc12 (stereo partly drawn),44

# Target: Substance-P receptor (Cavia porcellus) (UniProt P30547)
# Assay: Tested for percent inhibition against [3H]SP (substance P) binding against NK1 receptor relative to compound 5 (100)
# Conditions: concentration not given here
row,SMILES,inhibition [%]
1,CN(Cc1ccccc1)C(=O)[C@@H](Cc1ccccc1)NC(=O)C(CC(=O)NCC(N)=O)NC(=O)c1c[nH]c2ccccc12 (stereo partly drawn),128
2,CN(Cc1ccccc1)C(=O)[C@@H](Cc1ccccc1)NC(=O)C(CC(=O)NC(CCC(N)=O)C(=O)NC(C)(C)C)NC(=O)c1c[nH]c2ccccc12 (stereo partly drawn),96
3,CN(Cc1ccccc1)C(=O)[C@@H](Cc1ccccc1)NC(=O)C(CC(=O)NC(CCC(N)=O)C(N)=O)NC(=O)c1c[nH]c2ccccc12 (stereo partly drawn),56
4,CN(Cc1ccccc1)C(=O)[C@@H](Cc1ccccc1)NC(=O)C(CC(=O)NC(CO)C(N)=O)NC(=O)c1c[nH]c2ccccc12 (stereo partly drawn),100

# Target: Substance-P receptor (Cavia porcellus) (UniProt P30547)
# Assay: Tested for percent inhibition against [3H]SP (substance P) binding against NK1 receptor relative to compound
# Conditions: concentration not given here
row,SMILES,inhibition [%]
1,C[C@@H](O)C(NC(=O)CC(NC(=O)c1c[nH]c2ccccc12)C(=O)N[C@H](Cc1ccccc1)C(=O)N(C)Cc1ccccc1)C(N)=O (stereo partly drawn),100

# Target: Substance-P receptor (Cavia porcellus) (UniProt P30547)
# Assay: Tested for percent inhibition against [3H]SP (substance P) binding against NK1 receptor relative to compound 7 at 100 ng/mL; No inhibition
# Conditions: not given
row,SMILES,inhibition
1,CC(=O)NC(C(=O)NCCCCC(N)C(=O)N[C@H](Cc1ccccc1)C(=O)N(C)Cc1ccccc1)C(C)O (stereo partly drawn),inactive
2,CC(=O)NC(C(=O)NCCCCC(NC(=O)c1ccccc1)C(=O)N[C@H](Cc1ccccc1)C(=O)N(C)Cc1ccccc1)C(C)O (stereo partly drawn),inactive
3,CC(=O)NC(C(=O)NCCCCC(NC(=O)OC(C)(C)C)C(=O)N[C@H](Cc1ccccc1)C(=O)N(C)Cc1ccccc1)C(C)O (stereo partly drawn),inactive
4,CC(=O)NC(CCCCNC(=O)C(NC(C)=O)C(C)O)C(=O)N[C@H](Cc1ccccc1)C(=O)N(C)Cc1ccccc1 (stereo partly drawn),inactive
5,CC(=O)N[C@H](C(=O)NCCCC[C@@H](NC(=O)c1c[nH]c2ccccc12)C(=O)N[C@H](Cc1ccccc1)C(=O)N(C)Cc1ccccc1)[C@@H](C)O,inactive
